Reference: PMC12491715 (Acta Pharmaceutica Sinica. B, 2025)
≈ marks a conversion by molar mass, not a printed value.

Tests used:
Thermodynamic solubility = assay type: physicochemical; settings: thermodynamic from solid
Experimental: (§1) The supernatants were diluted 1:5 with 50% MeCN or used directly for UPLC analysis (calibration curve was constructed from 0.5–100 mg/L standard solutions of compound 8).

tau = experiment: Western blot of APP/PS1 mice brain homogenates, tau; assay type: in vivo, C57BL/6J-TgN(APP/PS1)ZLFILAS mice; settings: 15-day treatment, 1 or 5 mg/kg ip
[1] = tested on: ICR mice icv-injected with Aβ1–42; experiment: Morris water maze, mice model with icv-injection of Aβ1–42; assay type: in vivo; settings: 1–5 mg/kg, ip, once a day; comparable to rivastigmine 4 (1 mg/kg, ip)
Experimental: Mice model with icv-injection of Aβ1–42 The experiments were performed using ICR male mice (8–10 weeks old, weight 18–20 g), which were purchased from Shanghai Bikai Animal Breeding Factory (Shanghai, China). Animals were housed in cages (6 mice per cage) at a constant temperature of 25±2 °C, humidity of 55%±10% and a light/dark (12:12) cycle. The mice had unlimited access to food and water prior to the experiment. Specified conditions for the maintenance of mice were ensured throughout the experiments, including tree bedding (Yizheng Anlimao Biotechnology Co., Ltd., China) and lab feed (Zimao, China). For behavioural tests, mice were selected randomly, each group consisted of 6 mice. The experiments were performed between 9 am and 3 pm.
According to the literature procedure, recombinant human hexafluoroisopropanol-pretreated Aβ1–42 from Merck Millipore (Darmstadt, Germany) was dissolved in 1% DMSO, diluted with saline to the final concentration of 2 mg/mL, and incubated for 72 h to form oligomers. […]
Behavioural assays The Morris water maze was placed in a lighted room at 25 °C, and it was divided into four equal quadrants. […] The time spent searching for the missing platform was recorded by Xeye Aba image processing system (Beijing Zhongshi Dichuang Technology Development Co., Ltd.) and analysed by GraphPad Prism 5.

[2] = pKa from solubility and partition measurements; assay type: physicochemical; settings: break in the logP vs. pH and log(solubility) vs. pH plot
Experimental: as §1
Shake-flask partition coefficient measurement was done according to OECD guideline 107 (27. 7. 1995) and EPA OPPTS 830.7550 guideline (1996). Briefly, PBS pH 7.4 buffer (50 mL) and n-octanol (50 mL) were thoroughly shaken to ensure saturation of both phases and left to separate. Compound 8 stock solution in n-octanol (approx. 1000 mg/L) was accurately pipetted into Eppendorf tubes (500, 1000, 500 μL, respectively) and n-octanol-saturated PBS pH 7.4 buffer (500, 500, 1000 μL, respectively) was added. Each solvent ratio was done in duplicates. The Eppendorf tubes were thoroughly shaken to ensure partition and centrifuged (5000 × g, 10 min) to separate the phases. Water phase (carefully sampled using needle and syringe) was transferred to HPLC vials directly, whereas n-octanol phases were diluted with MeCN (10–50×) prior to analysis. Additional dilutions were carried out, if needed.

SH-SY5Y cells = experiment: Neuroprotection assay against Aβ1–42, 7-AAD flow cytometry; assay type: cell-based, human; settings: 5 μmol/L compound, 5 μmol/L fibrillar Aβ1–42, 48 h
Experimental: Cell culture and treatments The human neuroblastoma SH-SY5Y cell line was purchased from American Type Culture Collection (Manassas, VA, USA). Cells were cultured in Advanced Dulbecco’s modified Eagle’s medium (Gibco, Thermo Fisher Scientific, Waltham, MA, USA) supplemented with 10% fetal bovine serum (FBS, Gibco), 2 mmol/L L-glutamine, 50 U/mL penicillin and 50 μg/mL streptomycin (Sigma, St. Louis, MO, USA) in a humidified atmosphere of 95% air and 5% CO2 at 37 °C, and grown to 80% confluence. Prior to cell treatment, complete medium was replaced with serum-reduced medium (i.e., with 2% FBS). Compounds were prepared as a stock solution of 50 mmol/L in DMSO.
Neuroprotection assay The neuroprotective effect of compounds on cytotoxic effect of Aβ1–42 was determined with the fluorescent intercalator 7-aminoactinomycin D (7-AAD) assessed by flow cytometry. Prior to cell treatment, the peptide Aβ1–42 (Merck Millipore, Darmstadt, Germany) was dissolved in DMSO at a concentration of 1 mmol/L and was incubated at 100 μmol/L in 1 mol/L HCl at 37 °C for 24 h to induce Aβ aggregation. […] Cells were then analysed for cytotoxicity by flow cytometry on Attune NxT flow cytometer (Thermo Fisher Scientific). The percentage of 7AAD positive (7AADpos) cells was evaluated using FlowJo software (FlowJo, LLC., Ashland, OR, USA).

[3] = Hydrolysis of 8 in human plasma; assay type: in vitro ADME
Text: See Supporting Information Tables S4.

Question: For `CCN(CC)C(=O)n1cnc(C2(CC)Cc3ccccc3C2)c1` [Compound 8, N,N-Diethyl-4-(2-ethylindan-2-yl)-1H-imidazole-1-carboxamide], which solubility at 24 h (Thermodynamic solubility; 1% Tween 20 in water, aqueous with cosolvent or surfactant or cyclodextrin, 1% Tween 20/water) is on record?
Answer: 615 ± 172 µg/mL (≈ 1970 µM)

Question: What about the solubility at 24 h (Thermodynamic solubility; PBS, aqueous buffer) of the same molecule?
Answer: 100 ± 20 µg/mL (≈ 321 µM)

Question: What about the solubility at 24 h (Thermodynamic solubility; pH 2 solution, pH 2, aqueous buffer) of the same molecule?
Answer: 2420 ± 108 µg/mL (≈ 7760 µM)

Question: What about the solubility at 24 h (Thermodynamic solubility; pH 4 solution, pH 4, aqueous buffer) of the same molecule?
Answer: 166 ± 12 µg/mL (≈ 533 µM)

Question: And the solubility at 24 h (Thermodynamic solubility; pH 6 solution, pH 6, aqueous buffer)?
Answer: 136 ± 1 µg/mL (≈ 437 µM)

Question: What about the solubility at 24 h (Thermodynamic solubility; pH 10 solution, pH 10, aqueous buffer) of the same molecule?
Answer: 103 ± 17 µg/mL (≈ 331 µM)

Question: What about the solubility at 24 h (Thermodynamic solubility; water) of the same molecule?
Answer: 115 ± 26 µg/mL (≈ 369 µM)

Question: What about the “tau hyperphosphorylation in whole brain homogenates” value (tau) of the same molecule?
Answer: significantly lowered tau hyperphosphorylation

Question: What about the “performance in Morris water maze” value [1] of the same molecule?
Answer: outperformed saline-treated mice (model)

Question: And the pKa [2]?
Answer: 4.1

Question: What about the “7-AAD-positive cells after Aβ1–42 treatment” value (SH-SY5Y cells) of the same molecule?
Answer: significant reduction

Question: And the “8 present after 24 h” value ([3]; control experiment, plasma pre-treated with BChE-selective covalent inhibitor isoOMPA)?
Answer: > 85%

Question: What about the half-life at 20 μg/L ([3]; human, plasma, 37 °C, nominal starting concentration 20 μg/L) of the same molecule?
Answer: 5 h
